Measured values from patent US20230279379A1, “METHODS AND MICROFLUIDIC DEVICE FOR PRODUCING EXTRACELLULAR VESICLES” (THE BOARD OF TRUSTEES OF THE UNIVERSITY OF ILLINOIS, priority 2022, published 2023).

What was measured:
[1] = system: membrane-cytoskeleton attachment in MSCs; assay: Force for membrane tether formation by AFM; format: cell-based; details: CK869 treatment for 2 hours; within 4 hours of cell adhesion
Method: Measurement of Force for Membrane Tether Formation by Atomic Force Microscopy (AFM). Membrane tethering force was measured by using 3D-BIO AFM (Asylum Research, Oxford Instruments) with TR400PSA cantilevers (OTR4; spring constant=30 pN/nm). Indentation depth for each measurement was 4 μm with a velocity of 2 μm/s, and the force curve for each measurement was recorded by the AFM software (AR14). For each cell, 25-50 force curves were analyzed. In force mode, the piezotranducer (PZT) was set to drive the cantilever to approach, touch, make an indentation, and retract over a predefined distance in the optical axis perpendicular to the cell surface. The force curve was generated from the recorded vertical-axis movement of the PZT and the deflection of the cantilever with a known dimension and a spring constant. In the force curve representing the retraction of the cantilever from a cell, a sudden release of force occurred at the rupture of a membrane tether was quantified via a custom MATLAB program.

[2] = system: CD63-K2S^+ MVBs in D1 mouse MSCs; assay: Intracellular CD63-K2S+ MVB transport by TIRF microscopy; format: cell-based; details: Arp2/3 inhibition by CK869
Source text: Lentiviral-Mediated Expression of CD63 Fused with Fluorescent Proteins. Katushka2S (far-red fluorescent protein) was fused with CD63 in a lentiviral expression vector (CD63-K2S vector) and expressed in D1 MSCs according to known methods. The sequence for pHLuorin2 (pH-sensitive green fluorescent protein) was synthesized by GenScript and exchanged with the Katushka2S in the same vector using restriction enzyme cloning. The resulting CD63-pHLuorin2 lentiviral vector was transduced in D1 MSCs in a similar method as the CD63-K2S vector. Cells were selected by treatment with 5 μg/mL puromycin over 3 days and confirmed to express fluorescent signal versus non-transduced cells.
Total Internal Reflection Fluorescence (TIRF) Imaging of Cells on Substrates. To covalently bond crosslinked PEG-DA hydrogel to a thin glass surface, acrylate groups were attached to glass coverslips by silanization. […]
CD63-Katushka2S Data Analysis. […] Intracellular bodies were determined using Gaussian smoothing and local background intensity thresholding (with automatically determined thresholds) to detect surfaces followed by tracking their position (x, y) over time (t). […] Multivescular body (MVB) area was computed for each time t and reported as the mean area across total track time T. Tracks were then analyzed via a custom MATLAB (R2017b, MathWorks) program. Track MSD was calculated as […]

COc1ccc(N2C(=O)CSC2c2cccc(Br)c2)c(OC)c1 (stereo not drawn) [CK869]
force of membrane tether formation [1]: slightly decreased tethering on the soft hydrogel
transport exponent α [2]: ~0.5
MVB transport (tracks, <MSD> vs t, D0.4s) ([2]; soft and stiff substrate): significantly enhanced transport on either substrate
